“And” between values parts separate entries of the source, which are not always exact repeats. Identical values can stand only once.
Experiment: molar heat capacity at constant pressure
Details: 101.33 kPa, Crystal, PPMS instrument (Quantum Design)

O=P([O-])([O-])[O-].[La+3] [lanthanum orthophosphate]
Details	molar heat capacity at constant pressure
2.046 K	0.00182 J/K/mol
2.066 K	0.00139 J/K/mol
2.067 K	0.0014 J/K/mol
2.068 K	0.00141 J/K/mol
2.083 K	0.00123 J/K/mol
2.246 K	0.0017 J/K/mol
2.247 K	0.0017 J/K/mol and 0.00172 J/K/mol
2.415 K	0.00201 J/K/mol
2.429 K	0.00212 J/K/mol
2.43 K	0.00213 J/K/mol
2.616 K	0.00265 J/K/mol
2.617 K	0.00266 J/K/mol
2.618 K	0.00266 J/K/mol
2.763 K	0.0031 J/K/mol
2.802 K	0.0034 J/K/mol
2.803 K	0.00342 J/K/mol
2.805 K	0.00339 J/K/mol
2.989 K	0.00467 J/K/mol
2.992 K	0.00476 J/K/mol
2.994 K	0.00473 J/K/mol
3 K	0.0053 J/K/mol
3.115 K	0.00524 J/K/mol
3.19 K	0.00601 J/K/mol
3.191 K	0.00593 J/K/mol and 0.00603 J/K/mol
3.383 K	0.00728 J/K/mol
3.385 K	0.00731 J/K/mol
3.386 K	0.0073 J/K/mol
3.473 K	0.00765 J/K/mol
3.505 K	0.00809 J/K/mol
3.578 K	0.00852 J/K/mol
3.58 K	0.00853 J/K/mol and 0.00852 J/K/mol
3.772 K	0.00994 J/K/mol
3.775 K	0.00998 J/K/mol
3.778 K	0.00998 J/K/mol
3.839 K	0.01034 J/K/mol
3.969 K	0.01147 J/K/mol
3.973 K	0.01149 J/K/mol
3.976 K	0.01146 J/K/mol
4.008 K	0.01178 J/K/mol
4.168 K	0.0131 J/K/mol
4.172 K	0.01315 J/K/mol
4.174 K	0.01314 J/K/mol
4.207 K	0.01339 J/K/mol
4.368 K	0.01481 J/K/mol
4.371 K	0.01487 J/K/mol
4.372 K	0.01494 J/K/mol
4.518 K	0.01632 J/K/mol
4.565 K	0.01686 J/K/mol
4.568 K	0.01687 J/K/mol
4.569 K	0.0169 J/K/mol
4.576 K	0.01697 J/K/mol
4.763 K	0.01882 J/K/mol
4.765 K	0.01903 J/K/mol
4.768 K	0.01911 J/K/mol
4.946 K	0.02113 J/K/mol
4.961 K	0.02146 J/K/mol
4.965 K	0.02154 J/K/mol
4.967 K	0.02153 J/K/mol
5.031 K	0.02216 J/K/mol
5.166 K	0.02384 J/K/mol
5.173 K	0.02394 J/K/mol
5.174 K	0.02375 J/K/mol
5.323 K	0.02601 J/K/mol
5.367 K	0.0265 J/K/mol
5.369 K	0.02666 J/K/mol
5.37 K	0.02686 J/K/mol
5.546 K	0.02914 J/K/mol
5.565 K	0.02951 J/K/mol
5.574 K	0.02974 J/K/mol and 0.02916 J/K/mol
5.695 K	0.03139 J/K/mol
5.77 K	0.03276 J/K/mol
5.771 K	0.03277 J/K/mol
5.774 K	0.03288 J/K/mol
5.965 K	0.03647 J/K/mol
5.967 K	0.03583 J/K/mol
5.974 K	0.03623 J/K/mol
6.057 K	0.03765 J/K/mol
6.065 K	0.03776 J/K/mol
6.165 K	0.03972 J/K/mol
6.17 K	0.03972 J/K/mol
6.171 K	0.03961 J/K/mol
6.367 K	0.04348 J/K/mol
6.37 K	0.04345 J/K/mol
6.373 K	0.04366 J/K/mol
6.438 K	0.04486 J/K/mol
6.567 K	0.04741 J/K/mol
6.572 K	0.04748 J/K/mol
6.574 K	0.04752 J/K/mol and 0.04753 J/K/mol
6.768 K	0.05148 J/K/mol
6.773 K	0.05174 J/K/mol
6.774 K	0.05167 J/K/mol
6.812 K	0.05274 J/K/mol
6.968 K	0.0563 J/K/mol
6.973 K	0.0564 J/K/mol
6.976 K	0.05661 J/K/mol
7.087 K	0.05926 J/K/mol
7.169 K	0.06123 J/K/mol
7.175 K	0.06142 J/K/mol
7.176 K	0.06139 J/K/mol
7.188 K	0.06178 J/K/mol
7.371 K	0.06581 J/K/mol
7.377 K	0.06689 J/K/mol
7.381 K	0.06684 J/K/mol
7.56 K	0.07178 J/K/mol
7.57 K	0.07164 J/K/mol
7.575 K	0.072 J/K/mol
7.579 K	0.07223 J/K/mol
7.604 K	0.07273 J/K/mol
7.774 K	0.07756 J/K/mol
7.778 K	0.07802 J/K/mol
7.779 K	0.07794 J/K/mol
7.937 K	0.08278 J/K/mol
7.975 K	0.08393 J/K/mol
7.98 K	0.08397 J/K/mol
7.983 K	0.08418 J/K/mol
8.119 K	0.08872 J/K/mol
8.176 K	0.09007 J/K/mol
8.182 K	0.09043 J/K/mol
8.184 K	0.09022 J/K/mol
8.313 K	0.09473 J/K/mol
8.378 K	0.09678 J/K/mol
8.383 K	0.09686 J/K/mol
8.385 K	0.09715 J/K/mol
8.584 K	0.1041 J/K/mol
8.589 K	0.1043 J/K/mol
8.592 K	0.1046 J/K/mol
8.642 K	0.1065 J/K/mol
8.696 K	0.1085 J/K/mol
8.785 K	0.1119 J/K/mol
8.792 K	0.1125 J/K/mol
8.794 K	0.1122 J/K/mol
8.987 K	0.1198 J/K/mol
8.993 K	0.1201 J/K/mol
8.996 K	0.1202 J/K/mol
9.07 K	0.1232 J/K/mol
9.158 K	0.127 J/K/mol
9.188 K	0.1284 J/K/mol
9.196 K	0.131 J/K/mol and 0.1286 J/K/mol
9.198 K	0.1286 J/K/mol
9.393 K	0.1371 J/K/mol
9.398 K	0.1378 J/K/mol
9.4 K	0.1349 J/K/mol
9.447 K	0.1398 J/K/mol
9.586 K	0.1462 J/K/mol
9.598 K	0.1469 J/K/mol
9.602 K	0.1471 J/K/mol
9.675 K	0.1505 J/K/mol
9.792 K	0.1565 J/K/mol
9.8 K	0.1568 J/K/mol
9.805 K	0.157 J/K/mol
9.822 K	0.1578 J/K/mol
9.994 K	0.1666 J/K/mol
10 K	0.1669 J/K/mol
10.01 K	0.1671 J/K/mol
10.19 K	0.1769 J/K/mol
10.2 K	0.1776 J/K/mol and 0.1771 J/K/mol
10.21 K	0.1778 J/K/mol
11.18 K	0.2376 J/K/mol
12.19 K	0.3139 J/K/mol
13.19 K	0.4068 J/K/mol
14.19 K	0.5187 J/K/mol
15.2 K	0.6528 J/K/mol
16.21 K	0.8094 J/K/mol
17.22 K	0.9882 J/K/mol
18.24 K	1.192 J/K/mol
19.25 K	1.422 J/K/mol
20.24 K	1.669 J/K/mol
21.28 K	1.955 J/K/mol
22.27 K	2.25 J/K/mol
23.28 K	2.587 J/K/mol
24.29 K	2.937 J/K/mol
25.31 K	3.319 J/K/mol
26.33 K	3.721 J/K/mol
27.36 K	4.152 J/K/mol
28.34 K	4.576 J/K/mol
29.38 K	5.046 J/K/mol
30.37 K	5.505 J/K/mol
31.4 K	6.006 J/K/mol
32.4 K	6.51 J/K/mol
33.41 K	7.04 J/K/mol
34.43 K	7.567 J/K/mol
35.43 K	8.121 J/K/mol
36.45 K	8.686 J/K/mol
37.45 K	9.258 J/K/mol
38.41 K	9.809 J/K/mol
38.46 K	9.827 J/K/mol
39.48 K	10.43 J/K/mol
40.48 K	11.02 J/K/mol
40.49 K	11.03 J/K/mol
42.49 K	12.25 J/K/mol
44.51 K	13.49 J/K/mol
46.53 K	14.76 J/K/mol
48.55 K	16.05 J/K/mol
50.57 K	17.36 J/K/mol
52.59 K	18.66 J/K/mol
54.6 K	19.95 J/K/mol
56.62 K	21.25 J/K/mol
58.64 K	22.56 J/K/mol
60.66 K	23.86 J/K/mol
62.68 K	25.14 J/K/mol
64.7 K	26.41 J/K/mol
66.72 K	27.64 J/K/mol
68.74 K	28.87 J/K/mol
70.74 K	30.08 J/K/mol
72.76 K	31.29 J/K/mol
74.78 K	32.47 J/K/mol
75.85 K	33.08 J/K/mol
76.8 K	33.62 J/K/mol
78.81 K	34.78 J/K/mol
80.81 K	35.87 J/K/mol
80.84 K	35.88 J/K/mol
85.86 K	38.64 J/K/mol
90.91 K	41.31 J/K/mol
95.96 K	43.8 J/K/mol
101 K	46.3 J/K/mol
106 K	48.66 J/K/mol
111.1 K	50.92 J/K/mol
116.1 K	53.11 J/K/mol
121.2 K	55.16 J/K/mol
126.2 K	57.26 J/K/mol
131.3 K	59.2 J/K/mol
136.3 K	61.11 J/K/mol
141.4 K	62.97 J/K/mol
146.4 K	64.73 J/K/mol
151.4 K	66.44 J/K/mol
156.5 K	68.1 J/K/mol
161.5 K	69.61 J/K/mol
166.5 K	71.14 J/K/mol
171.6 K	72.74 J/K/mol
176.6 K	74.33 J/K/mol
181.6 K	75.68 J/K/mol
186.7 K	77.05 J/K/mol
191.7 K	78.48 J/K/mol
196.7 K	79.89 J/K/mol
201.8 K	81.31 J/K/mol
206.8 K	82.59 J/K/mol
211.8 K	83.86 J/K/mol
216.9 K	85.21 J/K/mol
221.9 K	86.36 J/K/mol
226.9 K	87.35 J/K/mol
231.9 K	88.39 J/K/mol
237 K	89.46 J/K/mol
242 K	90.5 J/K/mol
247 K	91.49 J/K/mol
252.1 K	92.36 J/K/mol
257.1 K	93.28 J/K/mol
262.1 K	94.21 J/K/mol
267.1 K	95.29 J/K/mol
272.1 K	96.19 J/K/mol
277.1 K	97.31 J/K/mol
282.2 K	98.39 J/K/mol and 98.37 J/K/mol
287.2 K	99.41 J/K/mol
287.3 K	99.33 J/K/mol
292.2 K	100.36 J/K/mol
292.3 K	100.2 J/K/mol
297.3 K	100.95 J/K/mol
302.26 K	101.79 J/K/mol
302.33 K	101.79 J/K/mol
302.35 K	101.81 J/K/mol
307.29 K	102.41 J/K/mol
307.35 K	102.45 J/K/mol
307.37 K	102.44 J/K/mol
312.31 K	103.05 J/K/mol
312.37 K	102.95 J/K/mol
312.39 K	103 J/K/mol
317.33 K	103.53 J/K/mol
317.4 K	103.64 J/K/mol
317.42 K	103.68 J/K/mol
322.35 K	104.24 J/K/mol
322.44 K	104.25 J/K/mol
322.45 K	104.34 J/K/mol
327.36 K	105.12 J/K/mol
327.45 K	105.03 J/K/mol
327.48 K	104.97 J/K/mol
332.38 K	105.69 J/K/mol
332.46 K	105.73 J/K/mol
332.48 K	105.57 J/K/mol
337.4 K	106 J/K/mol
337.5 K	106.2 J/K/mol and 106.19 J/K/mol
342.43 K	106.41 J/K/mol
342.53 K	106.46 J/K/mol
342.55 K	106.5 J/K/mol
347.11 K	107.02 J/K/mol
347.2 K	106.86 J/K/mol
347.23 K	106.97 J/K/mol
351.79 K	107.32 J/K/mol
351.86 K	107.38 J/K/mol and 107.33 J/K/mol
356.73 K	107.65 J/K/mol
356.79 K	107.89 J/K/mol
356.81 K	107.7 J/K/mol
361.73 K	108.18 J/K/mol
361.79 K	108.22 J/K/mol
361.8 K	108.28 J/K/mol
366.74 K	108.45 J/K/mol
366.81 K	108.25 J/K/mol and 108.64 J/K/mol
371.74 K	108.81 J/K/mol
371.8 K	108.77 J/K/mol
371.82 K	108.81 J/K/mol
376.74 K	109.11 J/K/mol
376.8 K	109 J/K/mol
376.82 K	108.98 J/K/mol
381.74 K	109.41 J/K/mol
381.81 K	109.29 J/K/mol

— the NIST ThermoML archive (doi:10.1016/j.jct.2004.07.031)
